Results as given in patent US20240099298A1, “BIOINSECTICIDAL COMPOSITIONS CONTAINING MONOTERPENES AND METHODS OF USE THEREOF” (priority 2017, published 2024).
Converted amounts (≈) assume the structure as drawn. “And” between values parts separate entries of the source, which are not always exact repeats. Equal entries are not always repeated. Where two headings read alike, the source gives them in different places.

What was measured:
[1] = system: Megalurothrips usitatus (Bagrall) (thrips); assay: Median lethal concentration fumigation test, thrips
Text: (§1) Median Lethal Concentration Tests. […] The species tested included Thrips (M. usitatus), spider mite (T. cinnabarinus), melon fly (B. cucuribitae), cockroach (B. lateralis), housefly (M. domestica), mosquito (A. aegypti), parasitic wasp (T. chilonis) and fruit fly (Drosophila melanogaster). After being exposed to the test chemicals for one hour, adult Thrips, spider mites, and roaches were transferred to another flask. In addition to fresh water, adult Thrips, spider mites, and roaches were then respectively fed with cowpea, fresh blade of eggplant, and peanut oil via filter. […] Mortality of melon fly was observed after three hours of exposure.

[2] = system: Aedes aegypti (Linnaeus) (mosquito)
Text: as §1

[3] = system: Bactrocera cucuribitae (Coquillett) (melon fly)
Text: as §1

[4] = system: Blatta lateralis (Walker) (cockroach)
Text: as §1

[5] = system: Musca domestica (Linnaeus) (housefly)
Text: as §1

[6] = system: Tetranychus cinnabarinus (Boisduval) (spider mites)
Text: as §1

[7] = system: Drosophila melanogaster (fruit fly); assay: Median lethal concentration fumigation test, fruit fly; format: in vivo; conditions: mortality after 280 minutes
[8] = system: B. cucuribitae (melon fly); assay: Median lethal time (LT50) test, melon fly; format: in vivo, Bactrocera cucuribitae
Text: (§2) All treatments and controls were in triplicate.
(§3) Toxicity of Monoterpenes as Fumigants. […] Therefore, to determine how fast the monoterpenes act as fumigants, it was necessary to determine their LT50 values for the target organisms.

[9] = system: T. castaneum (red flour beetle); assay: Median lethal time (LT50) test, red flour beetle; format: in vivo, Tribolium castaneum
Text: as §2, §3

[10] = system: H. picinus (Nitidulid beetle); assay: Median lethal time (LT50) test, Nitidulid beetle; format: in vivo, Haptoncus picinus
Text: as §2, §3

Aedes aegypti (mosquito) = assay: Median knockdown concentration (KC50) test, mosquito; format: in vivo
Text: as §2
(§4) Knockdown Activity of Monoterpenes.

[11] = system: Musca domestica (housefly); assay: Median knockdown concentration (KC50) test, housefly; format: in vivo; conditions: Musca domestica
Text: as §2, §4

[12] = system: T. chilonis (parasitic wasp); conditions: non-target parasitic wasp, mortality after 15 minutes of exposure
Text: (§5) Insect Egg Parasitic Wasp (Natural Enemy). […] Both species were purchased from a commercial source. One- to two-day-old adults (after eclosion) were used for fumigation tests.
as §1

[13] = system: A. japonicus (parasitic wasp); assay: Median lethal time (LT50) test, parasitic wasp (natural enemy)
Description: as §5
Median Lethal Time (LT50) and Median Knockdown Concentration (KC50) Tests. Five species of adult insects or natural enemies were tested for LT50 values including melon fly (B. cucuribitae), red flour beetle (T. castaneum), Nitidulidae beetle (H. picinus), parasitic wasp (A. japonicus) and housefly (M. domestica). For each treatment and control, 20 insects at the developmental stages described above were placed individually without food in a 1-L wide-mouth glass bottle (height 19.5 cm, bottom diameter 10.5 cm, mouth i.d. 5.5 cm) containing pieces of tissue paper. […] Five different concentrations of the test chemicals were placed on pieces of cellulose-based qualitative filter paper. Each of the filter papers was placed in a bottle to have 5 appropriate concentrations in serial dilutions. DDVP was the positive control, and no chemical treatments were the negative control. All treatments and controls were in triplicate. Mortality was observed periodically in a 10-30 minute interval for 2 days or until all insects died. The death was defined as no movement when the insects were touched.

honeybee Apis mellifera = assay: 24-hour fumigation assay on honeybee; conditions: for Mortality ± STD: 60 bees; for toxicity to honeybee (in words): 24-hour fumigation
Text: Experiments were done with 20 bees per group in triplicate.
Activity of Monoterpenes Against Honeybees. The honeybee (Apis mellifera) is the most frequent floral visitor of crops worldwide.

[14] = molecular target: T1, recombinant gamma-aminobutyric acid receptor-associated protein (rGABARAP) (Frankliniella occidentalis, UniProt A0A6J1T1Q2); assay: Microscale thermophoresis (MST) binding to rGABARAP
T1 sequence (A0A6J1T1Q2 1-118): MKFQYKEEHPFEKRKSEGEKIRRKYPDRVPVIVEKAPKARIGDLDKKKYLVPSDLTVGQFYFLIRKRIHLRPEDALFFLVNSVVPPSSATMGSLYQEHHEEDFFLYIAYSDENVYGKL
Text: (§6) Preparation of recombinant GABARAP (rGABARAP) protein. RNA was extracted from F. occidentalis and cDNA was then synthesized. GABARAP (GenBank accession No. LOC113211372) was obtained after PCR amplification (Stafford-Banks, et al. (2014) Plos One 9:e94447).
(§7) Interaction between ME and rGABARAP. A Nano Temper Monolith NT.115 MST system (Nano Temper, Munich, Germany) was used to assess the binding affinities between the target compounds and rGABARAP according to the published procedures (Zan, et al. (2020) Journal of Agricultural and Food Chemistry 68:6280-6285). Spinosyn A was used as a chemical positive control. Spinosyn A (≥1 nM) can trigger a change of the Cl^− current of insect neuron GABAAR, which is considered to be an insecticidal action mechanism of spinosyn A (Watson (2001) Pesticide Biochemistry and Physiology 71:20-28). Ovalbumin (OVA) (Sangon Biotech, Shanghai, China) is a control protein consisting of 385 amino acid residues. The interaction between OVA and ME was used as a protein control experiment (Huntington, et al. (1995) Protein Science 4:613-621).

[15] = system: Megalurothrips usitatus (flower Thrips); conditions: adult M. usitatus, 24 hours of fumigation in 1-L flasks
[16] = system: Thrips Megalurothrips usitatus; conditions: 24-hour fumigation assay, 0-0.192 μL/dm^3
[17] = T 25 °C; cited from earlier work
housefly adults = conditions: cited from earlier work
[18] = molecular target: T1, recombinant gamma-aminobutyric acid receptor-associated protein (rGABARAP); assay: Isothermal titration calorimetry (ITC) binding to rGABARAP; conditions: 25° C., pH 7.4
Description: as §6
(§8) The isothermal titration thermal binding measurements were performed with an ITC-200 calorimeter (GE Healthcare, Boston, MA) at 25° C. in a buffer containing 50 mM Tris-HCl and 100 mM NaCl (pH 7.4). […] The MicroCal Origin 7.0 software system was used for data processing. The first run was a pre-run and was excluded from the final data. The amount of protein in the sample pool was constant. […] The experimental bimolecular interaction data from the 18 drops were used to calculate the dissociation constant. The dissociation constant […] was calculated as 1/K (Li, et al. (2018) RSC Advances 8:18952-18958).

rGABARAP^Y174A [19] = molecular target: T2, rGABARAP^Y174A (Frankliniella occidentalis, UniProt A0A6J1T1Q2); assay: MST binding to rGABARAP mutant; conditions: read-out: Kd value, MST
T2 sequence (A0A6J1T1Q2 entry or part of it, stated change not applied): as the sequence (A0A6J1T1Q2 1-118) above
Description: as §7
(§9) Preparation of rGABARAP Mutant and Interaction Between ME and rGABARAP Mutant. […] DNAman was used to convert the nucleic acid sequence into an amino acid sequence and find the Y174 site. Y174 was mutated to A174. The rGABARAP mutant gene loaded into the pMCSG19 vector and the His tags at both ends of the sequence were retained to construct a prokaryotic expression plasmid. The carrier contained a maltose binding protein (MBP) tag that was not cut for verification. However, MBP and ME were used as treatment controls. The mutant plasmid was constructed in Sangon Biotech (Shanghai, China). The protein expression, purification, and desalting procedures of rGABARAP^Y174A mutant and rGABARAP were the same. Subsequently, the binding kinetics of ME and rGABARAP^Y174A were tested by MST and ITC.

rGABARAP^Y174A [20] = molecular target: T2, rGABARAP^Y174A; assay: ITC binding to rGABARAP mutant
Description: as §8, §9

[21] = system: Frankliniella occidentalis second-instar nymphs; assay: whole plant or invertebrate; conditions: 24 h
Description: Chemicals. […] These monoterpenes and the positive control spinosyn A (Bosite Technology, Chongqing, China) were dissolved in acetone (10 g/L).
Insects. F. occidentalis Thrips were provided by the Institute of Vegetables and Flowers, Chinese Academy of Agricultural Sciences (Beijing, China), and kept in a box (19 cm×14 cm×20 cm) at 27±1° C., humidity of 50%-60% and a photoperiod of 16:8 h (light:dark). The population was established with sword beans (Canavalia gladiata). Second-instar nymphs with the same growth were tested.
Insect Assays. […] The leaf blade (2 cm×3 cm) was immersed in the solution for 10 s in the test solution, and then air-dried until there were no water drops on the surface. The concentrations were the same as those used in the insecticide-impregnated membrane method. After the chemical film had been formed for 2 h, the infusion leaves were placed in the bottles. The second-instar nymphs were picked with a soft writing brush to make up ten insects per bottle. The bottles were sealed with plastic wrap. 1% Triton X-100 (m/V) aqueous solution as a blank control. Each treatment was repeated four times. The bottles were placed under temperature of 27±1° C., humidity of 50%-60% and photoperiod of 16:8 h (light:dark). […] The insects were touched with a soft brush and numbers of dead and living Thrips were recorded, followed by calculation of the mortality rates.

[22] = adult thrips, exposed one hour, mortality observed in 24 hours
[23] = rGABARAP, read-out: Kd value, MST

SMILES: CC(C)=C1CC[C@@H](C)CC1=O [(+)-Pulegone]
- LC50 (fiducial limits) [1, 22]: 0.20 µg/mL (≈ 1.31 µM)
- LC90 (fiducial limits) [1, 22]: 0.67 µg/mL (≈ 4.4 µM)
- LC50 (fiducial limits) ([1]; adult thrips, exposed one hour, mortality observed in 24 hours, listed as (+)-pulegone): 0.196 µg/mL (≈ 1.29 µM)
- activity fold greater (smaller LC50) than positive control DDVP ([1]; thrips): 3.5 fold
- LC90 (fiducial limits) ([2]; adult mosquito, exposed 30 minutes, mortality in 24 hours): 16.8 µg/mL (≈ 110 µM)
- LC50 (fiducial limits) ([2]; in vivo): 10.3 µg/mL (≈ 67.7 µM)
- LC50 (fiducial limits) ([3]; in vivo): 112 µg/mL (≈ 736 µM)
- LC90 (fiducial limits) ([3]; melon fly): 657 µg/mL (≈ 4320 µM)
- LC90 (fiducial limits) ([4]; cockroach second instar nymphs, exposed one hour): 173 µg/mL (≈ 1140 µM)
- LC50 (fiducial limits) ([4]; in vivo): 15.0 µg/mL (≈ 98.5 µM)
- LC90 (fiducial limits) ([5]; adult housefly, exposed one hour, mortality in 24 hours): 11.9 µg/mL (≈ 78.2 µM)
- LC50 (fiducial limits) ([5]; in vivo): 7.38 µg/mL (≈ 48.5 µM)
- LC50 (fiducial limits) ([6]; in vivo): 2.52 µg/mL (≈ 16.6 µM)
- LC90 (fiducial limits) ([6]; spider mites, exposed one hour): 40.8 µg/mL (≈ 268 µM)
- LC50 (fiducial limits) [7]: 0.043 ng/mL (≈ 0.000282 µM)
- LC90 (fiducial limits) [7]: 0.00014 µg/mL (≈ 0.00092 µM)
- LT50 (fiducial limits) [8]: 0.87 h
- fold faster action relative to the other five monoterpenes (LT50) [8]: at least 1.9 fold
- LT50 (fiducial limits) [9]: 3.47 h
- LT50 (fiducial limits) [10]: 0.50 h
- fold faster action relative to the other five monoterpenes (LT50) [10]: ≥ 1.2 fold
- LT50 (fiducial limits) ([10]; listed as (+)-pulegone): 0.500 h
- KC50 (fiducial limits) (Aedes aegypti (mosquito); 10 Minutes): 19.6(8.41-35.5) μg/cm^3
- KC50 (fiducial limits) (Aedes aegypti (mosquito); 20 Minutes): 1.40 µg/mL
- KC50 (fiducial limits) (Aedes aegypti (mosquito); 30 Minutes): 1.4 µg/mL
- KC50 (fiducial limits) ([11]; 20 Minutes): >243 µg/mL
- KC50 (fiducial limits) ([11]; 30 Minutes): 12.2 µg/mL
- LC50 (fiducial limits) against T. chilonis [12]: 2.02 µg/mL and 2.06 µg/mL
- LC90 (fiducial limits) against T. chilonis [12]: 12.1 µg/mL (≈ 79.5 µM)
- LT50 fold greater than that of DDVP ([13]; A. japonicus): approximately 1.2 fold
- LT50 (fiducial limits) against A. japonicus ([13]; non-target parasitic wasp): 0.47 (0.00-0.68) hour
- Mortality ± STD (honeybee Apis mellifera; 0.012 μL/dm^3, 24-hour fumigation): 5.0 ± 8.7%
- Mortality ± STD (honeybee Apis mellifera; 0.024 μL/dm^3, 24-hour fumigation): 3.3 ± 5.8%
- Mortality ± STD (honeybee Apis mellifera; 0.048 μL/dm^3, 24-hour fumigation): 5.0 ± 5.0%
- Mortality ± STD (honeybee Apis mellifera; 0.096 μL/dm^3, 24-hour fumigation): 5.0 ± 5.0%
- Mortality ± STD (honeybee Apis mellifera; 0.192 μL/dm^3, 24-hour fumigation): 8.3 ± 7.6%
- mortality relative to no chemical control (honeybee Apis mellifera; 0.2 μL/dm^3, 24-hour fumigation): 3%
- toxicity to honeybee (in words) (honeybee Apis mellifera): little lethal toxicity
- toxicity to honeybee (in words) (honeybee Apis mellifera; listed as (+)-pulegone): failed to have a negative impact
- Kd [14, 23]: 1.72 µM
- activity against flower Thrips in preliminary screening [15]: exhibit insecticidal activity
- LC50 [16]: 0.079 μL/dm^3
- Vp (Pa)/T (° C.) [17]: 16.3/25 Pa

SMILES: CC1CCC(C(C)C)C(O)C1 (centres unmarked) [menthol]
- repellent activity (housefly adults): 96%

SMILES: C/C=C/c1ccc(OC)cc1 [Anethole, 1-(4-methoxyphenyl) -1-propen]
- Kd [14, 23]: 1.61 µM
- Kd [18]: 4.49 µM
- Kd (rGABARAP^Y174A [19]): 41 ± 36.4 µM
- Kd value, ITC (rGABARAP^Y174A [20]): No binding

SMILES: COc1cccc2c1cc([N+](=O)[O-])c1c(C(=O)O)cc3c(c12)OCO3 [Aristolochic acid A, 3,4-methylenedioxy-8-methoxy-10-nitro-1-phenanthrenecarboxylicacid, reference compound]
- LC50 [21]: 40 µg/mL (≈ 117 µM)
- Kd [14]: 146 µM
- Kd value, ITC [18]: no binding
- Kd (rGABARAP^Y174A [19]): 158 ± 82 µM
- Kd value, ITC (rGABARAP^Y174A [20]): No binding
